“And” between values parts separate entries of the source, which are not always exact repeats. Identical values can stand only once. Like-named read-outs stand apart in the source and are kept apart here.
Assays:
κ opioid receptor = κ opioid receptor (Homo sapiens, UniProt P41145); test: PDSP radioligand binding, κ opioid; conditions: read-out: % inhibition at 10 µM
[1] = target: T1, M4 muscarinic acetylcholine receptor (Homo sapiens, UniProt P08173); test: PDSP radioligand binding, M4; conditions: read-out: % inhibition at 10 µM
T1 sequence (P08173 1-479): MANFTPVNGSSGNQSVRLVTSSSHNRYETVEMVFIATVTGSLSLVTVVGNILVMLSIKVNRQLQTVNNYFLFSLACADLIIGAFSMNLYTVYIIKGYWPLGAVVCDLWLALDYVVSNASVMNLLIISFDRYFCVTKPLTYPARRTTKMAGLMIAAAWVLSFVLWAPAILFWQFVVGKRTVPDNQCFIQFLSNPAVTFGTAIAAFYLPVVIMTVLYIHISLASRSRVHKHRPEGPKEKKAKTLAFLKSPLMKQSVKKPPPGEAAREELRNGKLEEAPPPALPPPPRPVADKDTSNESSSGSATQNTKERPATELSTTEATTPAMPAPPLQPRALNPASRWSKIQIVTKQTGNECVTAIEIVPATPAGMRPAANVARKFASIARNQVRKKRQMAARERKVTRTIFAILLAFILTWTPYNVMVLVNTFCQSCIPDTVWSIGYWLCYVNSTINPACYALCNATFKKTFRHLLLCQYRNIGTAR

[2] = target: T2, 5HT2C serotonergic receptor (Homo sapiens, UniProt P28335); test: PDSP radioligand binding, 5HT2C; conditions: for Ki: full concentration-response curves, n = 3-6 unless noted; for inhibition at 10 µM: read-out: % inhibition at 10 µM
T2 sequence (P28335 33-458): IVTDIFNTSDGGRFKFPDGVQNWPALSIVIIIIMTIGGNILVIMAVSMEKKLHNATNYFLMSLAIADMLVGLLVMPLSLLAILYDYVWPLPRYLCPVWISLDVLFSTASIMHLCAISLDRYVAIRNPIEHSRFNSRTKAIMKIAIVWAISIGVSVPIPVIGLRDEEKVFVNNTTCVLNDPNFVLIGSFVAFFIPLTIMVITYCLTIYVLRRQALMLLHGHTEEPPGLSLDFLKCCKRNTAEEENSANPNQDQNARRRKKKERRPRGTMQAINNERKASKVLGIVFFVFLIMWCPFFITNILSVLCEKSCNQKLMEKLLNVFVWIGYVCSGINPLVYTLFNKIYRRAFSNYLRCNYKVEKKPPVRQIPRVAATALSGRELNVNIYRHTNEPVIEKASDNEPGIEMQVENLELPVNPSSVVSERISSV

α2B adrenergic receptor = target: T3, α2B adrenergic receptor (Homo sapiens, UniProt P18089); test: PDSP radioligand binding, α2B; conditions: for Ki: full concentration-response curves, n = 3-6 unless noted; for inhibition at 10 µM: read-out: % inhibition at 10 µM
T3 sequence (P18089 1-450): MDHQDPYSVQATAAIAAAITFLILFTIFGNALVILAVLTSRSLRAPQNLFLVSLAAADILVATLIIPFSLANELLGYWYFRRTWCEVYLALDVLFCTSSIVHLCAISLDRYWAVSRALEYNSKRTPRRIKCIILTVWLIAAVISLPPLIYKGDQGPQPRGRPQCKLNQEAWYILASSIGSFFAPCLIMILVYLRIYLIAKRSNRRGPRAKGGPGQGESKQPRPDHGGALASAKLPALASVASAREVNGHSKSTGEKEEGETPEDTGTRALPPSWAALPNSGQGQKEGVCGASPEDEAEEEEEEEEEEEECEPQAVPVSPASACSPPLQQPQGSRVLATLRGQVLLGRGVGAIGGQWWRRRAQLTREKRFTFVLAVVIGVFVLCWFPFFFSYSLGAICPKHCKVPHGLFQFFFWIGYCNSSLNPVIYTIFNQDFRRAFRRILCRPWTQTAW

[3] = target: peripheral benzodiazepine receptor (PBR) (Rattus norvegicus, UniProt P16257); test: PDSP radioligand binding, PBR; conditions: for inhibition at 10 µM: read-out: % inhibition at 10 µM; for Ki: full curves, n = 2
σ2 receptor = target: T4, σ2 receptor (Rattus norvegicus, UniProt Q5U3Y7); test: PDSP radioligand binding, σ2; conditions: for inhibition at 10 µM: read-out: % inhibition at 10 µM
T4 sequence (Q5U3Y7 1-176): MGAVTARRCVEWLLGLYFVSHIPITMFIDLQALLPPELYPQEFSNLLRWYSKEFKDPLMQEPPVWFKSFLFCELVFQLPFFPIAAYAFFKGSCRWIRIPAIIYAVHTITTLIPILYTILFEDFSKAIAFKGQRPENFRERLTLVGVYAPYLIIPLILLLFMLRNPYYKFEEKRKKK

[4] = target: 5HT6 serotonergic receptor (Homo sapiens, UniProt P50406); test: PDSP radioligand binding, 5HT6; conditions: read-out: % inhibition at 10 µM
δ opioid receptor = δ opioid receptor (Homo sapiens, UniProt P41143); test: PDSP radioligand binding, δ opioid; conditions: for Ki: full concentration-response curves, n = 3-6 unless noted; for inhibition at 10 µM: read-out: % inhibition at 10 µM
D2 dopaminergic receptor = D2 dopaminergic receptor (Homo sapiens, UniProt P14416); test: PDSP radioligand binding, D2; conditions: read-out: % inhibition at 10 µM
[5] = target: 5HT5A serotonergic receptor (Homo sapiens, UniProt P47898); test: PDSP radioligand binding, 5HT5A; conditions: for inhibition at 10 µM: read-out: % inhibition at 10 µM
[6] = target: 5HT2A serotonergic receptor (Homo sapiens, UniProt P28223); test: PDSP radioligand binding, 5HT2A; conditions: read-out: % inhibition at 10 µM; single concentration 10 µM
hERG potassium channel = hERG potassium channel (Homo sapiens, UniProt Q12809); test: PDSP hERG functional assay; type: cell-based; conditions: for inhibition at 10 µM: human, single point 10 µM; for Ki: not binding
α1D adrenergic receptor = target: T5, α1D adrenergic receptor (Homo sapiens, UniProt P25100); test: PDSP radioligand binding, α1D; conditions: read-out: % inhibition at 10 µM
T5 sequence (P25100 1-572): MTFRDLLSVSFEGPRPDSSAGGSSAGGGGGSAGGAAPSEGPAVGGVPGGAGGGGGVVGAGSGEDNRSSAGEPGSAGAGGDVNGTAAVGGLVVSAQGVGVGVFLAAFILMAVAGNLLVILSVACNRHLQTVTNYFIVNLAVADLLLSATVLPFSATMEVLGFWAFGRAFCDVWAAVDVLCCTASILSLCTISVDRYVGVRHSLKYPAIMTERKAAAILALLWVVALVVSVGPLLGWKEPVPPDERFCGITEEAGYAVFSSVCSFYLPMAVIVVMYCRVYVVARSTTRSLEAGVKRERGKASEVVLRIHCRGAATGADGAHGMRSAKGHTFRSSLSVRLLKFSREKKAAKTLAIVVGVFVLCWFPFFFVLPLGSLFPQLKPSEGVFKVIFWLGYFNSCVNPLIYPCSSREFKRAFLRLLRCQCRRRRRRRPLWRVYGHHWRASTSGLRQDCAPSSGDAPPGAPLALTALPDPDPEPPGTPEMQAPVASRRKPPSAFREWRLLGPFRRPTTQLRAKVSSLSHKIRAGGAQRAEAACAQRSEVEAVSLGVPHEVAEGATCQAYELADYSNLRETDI

[7] = target: H4 histaminergic receptor (Homo sapiens, UniProt Q9H3N8); test: PDSP radioligand binding, H4; conditions: read-out: % inhibition at 10 µM
D5 dopaminergic receptor = D5 dopaminergic receptor (Homo sapiens, UniProt P21918); test: PDSP radioligand binding, D5; conditions: read-out: % inhibition at 10 µM
D5 dopaminergic receptor, sequence (P21918 whole entry): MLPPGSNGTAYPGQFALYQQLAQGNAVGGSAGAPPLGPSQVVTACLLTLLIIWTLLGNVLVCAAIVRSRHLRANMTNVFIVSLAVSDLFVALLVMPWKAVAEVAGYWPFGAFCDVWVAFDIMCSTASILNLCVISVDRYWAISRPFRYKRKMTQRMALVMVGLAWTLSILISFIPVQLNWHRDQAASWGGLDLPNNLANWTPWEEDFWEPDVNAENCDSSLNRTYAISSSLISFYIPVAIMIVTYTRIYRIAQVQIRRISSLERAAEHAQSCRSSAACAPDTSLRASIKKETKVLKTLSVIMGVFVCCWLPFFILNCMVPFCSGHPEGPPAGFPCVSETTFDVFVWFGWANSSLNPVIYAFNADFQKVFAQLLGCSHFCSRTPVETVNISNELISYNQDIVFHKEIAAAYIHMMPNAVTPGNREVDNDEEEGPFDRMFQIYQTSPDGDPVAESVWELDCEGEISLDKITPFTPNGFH

5HT6 serotonergic receptor, sequence (P50406 whole entry): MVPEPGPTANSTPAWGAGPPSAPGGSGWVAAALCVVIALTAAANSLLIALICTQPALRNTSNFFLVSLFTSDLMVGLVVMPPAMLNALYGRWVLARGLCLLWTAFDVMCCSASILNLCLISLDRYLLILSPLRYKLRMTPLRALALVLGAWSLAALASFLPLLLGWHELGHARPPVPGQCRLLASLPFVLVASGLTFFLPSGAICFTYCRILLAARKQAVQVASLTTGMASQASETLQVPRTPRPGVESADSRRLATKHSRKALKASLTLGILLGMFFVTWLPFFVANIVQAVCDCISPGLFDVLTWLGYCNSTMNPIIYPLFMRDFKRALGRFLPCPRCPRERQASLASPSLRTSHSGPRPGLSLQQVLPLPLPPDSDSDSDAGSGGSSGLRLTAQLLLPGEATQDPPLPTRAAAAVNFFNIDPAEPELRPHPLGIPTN
5HT5A serotonergic receptor, sequence (P47898 whole entry): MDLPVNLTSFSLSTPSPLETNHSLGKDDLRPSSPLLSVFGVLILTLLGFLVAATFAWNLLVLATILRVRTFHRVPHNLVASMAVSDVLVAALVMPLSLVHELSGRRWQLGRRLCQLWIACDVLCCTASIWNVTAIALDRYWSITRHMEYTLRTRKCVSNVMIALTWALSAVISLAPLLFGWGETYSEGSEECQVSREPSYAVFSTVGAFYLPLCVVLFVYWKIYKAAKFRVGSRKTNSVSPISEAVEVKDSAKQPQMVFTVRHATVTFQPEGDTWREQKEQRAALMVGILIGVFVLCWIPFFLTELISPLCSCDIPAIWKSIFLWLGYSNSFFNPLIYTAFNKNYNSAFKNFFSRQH
D2 dopaminergic receptor, sequence (P14416 whole entry): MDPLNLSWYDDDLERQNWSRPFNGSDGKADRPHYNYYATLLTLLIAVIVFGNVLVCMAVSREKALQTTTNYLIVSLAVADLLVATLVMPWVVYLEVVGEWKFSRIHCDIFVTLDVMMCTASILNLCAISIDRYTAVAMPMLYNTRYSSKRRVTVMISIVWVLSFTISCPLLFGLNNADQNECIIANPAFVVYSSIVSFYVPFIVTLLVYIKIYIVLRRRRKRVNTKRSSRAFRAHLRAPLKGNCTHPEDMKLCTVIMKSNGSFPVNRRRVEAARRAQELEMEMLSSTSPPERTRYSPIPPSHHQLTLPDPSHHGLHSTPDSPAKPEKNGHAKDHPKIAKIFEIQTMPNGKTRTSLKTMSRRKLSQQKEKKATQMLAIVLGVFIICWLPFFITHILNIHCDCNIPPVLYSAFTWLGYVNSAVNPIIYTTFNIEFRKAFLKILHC
hERG potassium channel, sequence (Q12809 whole entry): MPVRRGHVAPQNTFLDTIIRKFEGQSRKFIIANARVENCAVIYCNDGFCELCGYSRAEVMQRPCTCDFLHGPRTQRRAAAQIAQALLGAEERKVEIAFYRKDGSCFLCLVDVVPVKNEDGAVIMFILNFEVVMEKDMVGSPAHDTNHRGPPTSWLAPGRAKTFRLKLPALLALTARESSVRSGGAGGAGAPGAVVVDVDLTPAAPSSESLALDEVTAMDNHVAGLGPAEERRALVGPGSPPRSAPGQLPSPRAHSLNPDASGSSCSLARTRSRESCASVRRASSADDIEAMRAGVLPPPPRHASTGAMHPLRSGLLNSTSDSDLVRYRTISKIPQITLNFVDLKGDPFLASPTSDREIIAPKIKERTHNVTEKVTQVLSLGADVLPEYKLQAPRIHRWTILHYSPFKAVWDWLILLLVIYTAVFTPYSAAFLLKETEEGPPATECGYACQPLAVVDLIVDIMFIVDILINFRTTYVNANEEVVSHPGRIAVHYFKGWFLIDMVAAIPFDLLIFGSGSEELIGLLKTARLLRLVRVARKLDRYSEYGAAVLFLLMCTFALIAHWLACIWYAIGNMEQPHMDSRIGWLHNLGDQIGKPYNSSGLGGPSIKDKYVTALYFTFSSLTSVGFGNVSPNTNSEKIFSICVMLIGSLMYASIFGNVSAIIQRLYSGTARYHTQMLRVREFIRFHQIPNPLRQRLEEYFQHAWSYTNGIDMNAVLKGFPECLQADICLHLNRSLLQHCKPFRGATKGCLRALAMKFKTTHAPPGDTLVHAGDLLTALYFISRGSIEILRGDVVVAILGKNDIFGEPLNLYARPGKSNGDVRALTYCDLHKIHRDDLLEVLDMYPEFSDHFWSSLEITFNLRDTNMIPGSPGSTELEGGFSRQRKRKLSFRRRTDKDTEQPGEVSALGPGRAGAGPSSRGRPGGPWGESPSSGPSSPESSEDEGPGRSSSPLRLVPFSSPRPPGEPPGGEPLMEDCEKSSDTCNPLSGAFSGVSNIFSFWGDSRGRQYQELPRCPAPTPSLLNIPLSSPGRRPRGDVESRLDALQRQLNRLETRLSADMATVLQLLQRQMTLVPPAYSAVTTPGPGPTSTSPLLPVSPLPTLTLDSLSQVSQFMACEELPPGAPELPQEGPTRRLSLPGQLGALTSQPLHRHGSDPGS
κ opioid receptor, sequence (P41145 whole entry): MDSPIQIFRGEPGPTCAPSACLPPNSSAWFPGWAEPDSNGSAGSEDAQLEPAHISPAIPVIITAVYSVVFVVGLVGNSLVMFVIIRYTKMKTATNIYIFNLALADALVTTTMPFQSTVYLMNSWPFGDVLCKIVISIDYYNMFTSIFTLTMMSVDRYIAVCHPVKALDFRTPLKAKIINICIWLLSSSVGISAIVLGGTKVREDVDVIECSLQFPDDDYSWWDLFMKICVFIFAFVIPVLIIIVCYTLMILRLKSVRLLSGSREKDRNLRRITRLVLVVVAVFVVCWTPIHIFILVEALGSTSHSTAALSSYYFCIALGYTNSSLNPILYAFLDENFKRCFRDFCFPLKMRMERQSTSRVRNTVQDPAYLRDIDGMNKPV
H4 histaminergic receptor, sequence (Q9H3N8 whole entry): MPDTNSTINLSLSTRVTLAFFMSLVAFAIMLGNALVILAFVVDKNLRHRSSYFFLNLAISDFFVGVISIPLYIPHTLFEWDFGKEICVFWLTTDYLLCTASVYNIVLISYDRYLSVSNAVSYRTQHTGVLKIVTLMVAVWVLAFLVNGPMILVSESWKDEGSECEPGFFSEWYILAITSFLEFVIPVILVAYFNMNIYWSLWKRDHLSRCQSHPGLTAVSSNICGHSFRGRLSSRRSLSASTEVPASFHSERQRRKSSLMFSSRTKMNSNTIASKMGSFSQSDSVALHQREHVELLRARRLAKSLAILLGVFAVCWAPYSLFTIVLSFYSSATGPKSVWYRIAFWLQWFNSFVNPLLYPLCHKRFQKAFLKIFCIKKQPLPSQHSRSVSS
5HT2A serotonergic receptor, sequence (P28223 whole entry): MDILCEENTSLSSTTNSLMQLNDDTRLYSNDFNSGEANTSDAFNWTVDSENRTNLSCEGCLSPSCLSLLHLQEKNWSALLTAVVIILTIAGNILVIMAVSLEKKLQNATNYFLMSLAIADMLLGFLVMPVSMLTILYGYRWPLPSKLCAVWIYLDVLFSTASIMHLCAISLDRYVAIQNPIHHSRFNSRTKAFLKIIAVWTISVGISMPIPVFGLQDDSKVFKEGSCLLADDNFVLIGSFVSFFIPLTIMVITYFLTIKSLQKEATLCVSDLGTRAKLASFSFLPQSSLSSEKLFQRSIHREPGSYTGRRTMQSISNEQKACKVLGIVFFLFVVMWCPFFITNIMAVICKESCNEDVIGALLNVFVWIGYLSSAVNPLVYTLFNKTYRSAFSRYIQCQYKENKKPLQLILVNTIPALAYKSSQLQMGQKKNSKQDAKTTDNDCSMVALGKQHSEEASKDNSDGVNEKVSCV
δ opioid receptor, sequence (P41143 whole entry): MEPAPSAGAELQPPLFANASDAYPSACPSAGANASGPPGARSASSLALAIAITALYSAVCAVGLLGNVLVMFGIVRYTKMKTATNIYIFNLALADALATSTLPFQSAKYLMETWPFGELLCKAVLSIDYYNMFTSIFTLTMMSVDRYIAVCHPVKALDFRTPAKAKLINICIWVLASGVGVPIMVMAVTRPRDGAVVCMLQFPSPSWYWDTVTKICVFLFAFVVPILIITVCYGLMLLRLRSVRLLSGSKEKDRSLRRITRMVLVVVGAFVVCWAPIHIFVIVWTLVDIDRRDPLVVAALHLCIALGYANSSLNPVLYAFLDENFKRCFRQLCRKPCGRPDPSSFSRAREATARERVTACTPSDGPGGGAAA

| Structure (SMILES) | Ki [2] | Ki (α2B adrenergic receptor) | Ki (δ opioid receptor) | inhibition at 10 µM [6] | inhibition at 10 µM (hERG potassium channel) | Ki (hERG potassium channel) | inhibition at 10 µM (κ opioid receptor; single concentration 10 µM) | inhibition at 10 µM ([1]; single concentration 10 µM) | inhibition at 10 µM ([2]; single concentration 10 µM) | inhibition at 10 µM (α2B adrenergic receptor; single concentration 10 µM) | Ki [3] | inhibition at 10 µM ([3]; single concentration 10 µM) | inhibition at 10 µM (σ2 receptor; single concentration 10 µM) | inhibition at 10 µM ([4]; single concentration 10 µM) | inhibition at 10 µM (δ opioid receptor; single concentration 10 µM) | inhibition at 10 µM (D2 dopaminergic receptor; single concentration 10 µM) | inhibition at 10 µM ([5]; single concentration 10 µM) | inhibition at 10 µM (α1D adrenergic receptor; single concentration 10 µM) | inhibition at 10 µM ([7]; single concentration 10 µM) | inhibition at 10 µM (D5 dopaminergic receptor; single concentration 10 µM) | further results |
| --- | --- | --- | --- | --- | --- | --- | --- | --- | --- | --- | --- | --- | --- | --- | --- | --- | --- | --- | --- | --- | --- |
| CNC(=O)[C@@]12C[C@@H]1[C@@H](n1cnc3c(NCc4cccc(Cl)c4)nc(C#Cc4ccc(F)c(F)c4)nc31)[C@H](O)[C@@H]2O [Compound 1] | 7.19 ± 1.41 µM | 2.86 ± 1.11 µM | 2.44 ± 1.54 µM | 5% | 43 ± 1.9% | 12.2 µM |  |  |  |  |  |  |  |  |  |  |  |  |  |  | inhibition at 10 µM (κ opioid receptor): 71%; inhibition at 10 µM [1]: 20%; inhibition at 10 µM [2]: 20%; inhibition at 10 µM (α2B adrenergic receptor): 49%; inhibition at 10 µM [3]: 71%; Ki (σ2 receptor; full curves, n = 2): 0.908 ± 0.294 µM; inhibition at 10 µM (σ2 receptor): 0%; inhibition at 10 µM [4]: 0%; inhibition at 10 µM (δ opioid receptor): 44%; inhibition at 10 µM (D2 dopaminergic receptor): 0%; inhibition at 10 µM [5]: 3%; inhibition at 10 µM (α1D adrenergic receptor): 3%; inhibition at 10 µM [7]: 17%; inhibition at 10 µM (D5 dopaminergic receptor): 13% |
| CNC(=O)[C@@]12C[C@@H]1[C@@H](n1cnc3c(NCc4cccc(Cl)c4)nc(C#Cc4ccc(F)cc4)nc31)[C@H](O)[C@@H]2O [Compound 2] |  |  | 6.62 ± 1.7 µM | 19% | 5.8 ± 11.9% | 39.5 µM | 20% | 8% | 16% | 12% | 0.253 ± 0.057 µM | 92% | 30% | 36% | 24% | 0% | 25% | 6% | 28% | 19% |  |
| CNC(=O)[C@@]12C[C@@H]1[C@@H](n1cnc3c(NCc4cccc(Cl)c4)nc(C#Cc4ccccc4Cl)nc31)[C@H](O)[C@@H]2O [Compound 3] |  | 6.48 ± 2.94 µM |  | 26% | 10.3 ± 4.9% | 39.2 µM | 19% | 8% | 25% | 8% | 0.344 ± 0.149 µM | 87% | 42% | 59% | 31% | 0% | 29% | 20% | 9% | 10% | Ki [5]: 6.3 µM |
| CNC(=O)[C@@]12C[C@@H]1[C@@H](n1cnc3c(NCc4cccc(Cl)c4)nc(Cl)nc31)[C@H](O)[C@@H]2O [Compound 4] | 0.12 µM and 0.122 µM |  |  | 34% | 2% |  | 6% | 30% | 95% | 21% |  | 32% | 0% | 9% | 10% | 16% | 21% | 0% |  | 4% |  |

Source: article PMC4032265 (PLoS ONE, 2014)
